± gives the standard deviation of the averaged measurements.
What was measured:
MK0752 = compound: O=C(O)CC[C@H]1CC[C@@](c2cc(F)ccc2F)(S(=O)(=O)c2ccc(Cl)cc2)CC1 [MK0752]; assay: surviving fraction relative to DMSO-only wells; higher = less growth inhibition; details: exposure time: 5 days
How it was run: (§1)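 A line counted only if its three screens reached replicate Pearson r >0.7 and median Z' >0.3. Tumour cells in log phase were seeded at 250–500 per well in 384-well plates and, after 24 hours, kept in continuous contact with inhibitors at 0.5, 1, 5, 10, 50, 100, 500 and 1000 nM for five days. Surviving fraction was taken from CellTiter-Glo luminescence relative to the median of DMSO-only wells.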

[1] = compound: O=C(NOCC1CC1)c1ccc(F)c(F)c1Nc1ccc(I)cc1Cl; assay: as above; details: exposure time: 5 days
How it was run: as §1

Test System | surviving fraction (MK0752; 0.5 nM) | surviving fraction (MK0752; 1 nM) | surviving fraction (MK0752; 5 nM) | surviving fraction (MK0752; 10 nM) | surviving fraction (MK0752; 50 nM) | surviving fraction (MK0752; 100 nM) | surviving fraction (MK0752; 500 nM) | surviving fraction (MK0752; 1000 nM) | surviving fraction ([1]; 0.5 nM) | surviving fraction ([1]; 1 nM) | surviving fraction ([1]; 5 nM) | surviving fraction ([1]; 10 nM) | surviving fraction ([1]; 50 nM) | surviving fraction ([1]; 100 nM) | surviving fraction ([1]; 500 nM) | surviving fraction ([1]; 1000 nM)
HCC1806 BREAST | 0.974 ± 0.05 | 1.15 ± 0.15 | 1.23 ± 0.1 | 1.21 ± 0.086 | 1.28 ± 0.043 | 1.23 ± 0.14 | 1.19 ± 0.075 | 1.25 ± 0.025 | 1.04 ± 0.026 | 1.01 ± 0.098 | 1.09 ± 0.16 | 1.12 ± 0.079 | 1.1 ± 0.058 | 1.17 ± 0.048 | 0.761 ± 0.094 | 0.671 ± 0.022
HCC1954 BREAST | 0.922 ± 0.069 | 0.747 ± 0.054 | 1.18 ± 0.13 | 1.15 ± 0.15 | 1 ± 0.05 | 0.904 ± 0.02 | 0.741 ± 0.05 | 0.808 ± 0.073 | 0.986 ± 0.081 | 1.13 ± 0.023 | 1.12 ± 0.027 | 1.05 ± 0.066 | 0.8718 ± 0.0032 | 0.805 ± 0.081 | 0.617 ± 0.041 | 0.566 ± 0.067
HCT15 LARGE INTESTINE | 1.1 ± 0.032 | 1.08 ± 0.05 | 1.11 ± 0.032 | 1.09 ± 0.055 | 1.09 ± 0.029 | 1.1 ± 0.024 | 1.09 ± 0.044 | 1.082 ± 0.0067 | 0.526 ± 0.042 | 0.912 ± 0.023 | 0.849 ± 0.05 | 0.936 ± 0.066 | 0.608 ± 0.037 | 0.914 ± 0.039 | 0.784 ± 0.0076 | 0.823 ± 0.05
HELA CERVIX | 1.07 ± 0.098 | 1.14 ± 0.056 | 1.08 ± 0.023 | 1.09 ± 0.035 | 1.13 ± 0.16 | 1.2 ± 0.087 | 1.2 ± 0.034 | 1.2 ± 0.09 | 0.961 ± 0.057 | 1.01 ± 0.09 | 0.97 ± 0.07 | 0.964 ± 0.08 | 1.02 ± 0.012 | 1.08 ± 0.055 | 1.09 ± 0.077 | 1.12 ± 0.025
HMLE3 BREAST | 0.958 ± 0.049 | 1.06 ± 0.039 | 1.08 ± 0.024 | 1.06 ± 0.062 | 0.999 ± 0.086 | 1.02 ± 0.066 | 0.979 ± 0.1 | 0.978 ± 0.069 | 0.845 ± 0.061 | 0.91 ± 0.028 | 0.922 ± 0.053 | 0.862 ± 0.017 | 0.733 ± 0.032 | 0.745 ± 0.048 | 0.525 ± 0.03 | 0.612 ± 0.001
HMT3552 BREAST | 1.05 | 1.07 | 1.01 | 0.985 | 1.04 | 1.16 | 1.11 | 1.12 | 1.11 | 1.12 | 1.01 | 1.08 | 1.02 | 0.941 | 0.92 | 0.843
HOS BONE | 1.03 ± 0.026 | 1.02 ± 0.037 | 1.058 ± 0.01 | 1.04 ± 0.016 | 1.1 ± 0.024 | 1.1 ± 0.035 | 1.03 ± 0.046 | 1.1 ± 0.023 | 0.996 ± 0.015 | 1.01 ± 0.025 | 0.997 ± 0.014 | 1.01 ± 0.033 | 0.9843 ± 0.006 | 0.998 ± 0.018 | 0.951 ± 0.02 | 0.9593 ± 0.0051
HOSMNG BONE | 0.936 ± 0.023 | 1.02 ± 0.037 | 0.959 ± 0.052 | 0.981 ± 0.046 | 1.05 ± 0.028 | 1.05 ± 0.029 | 1.06 ± 0.061 | 1.04 ± 0.024 | 1 ± 0.092 | 0.992 ± 0.059 | 0.999 ± 0.082 | 1.01 ± 0.027 | 0.992 ± 0.12 | 1.02 ± 0.084 | 0.991 ± 0.1 | 1.06 ± 0.03
HS57T BREAST | 1.09 ± 0.048 | 1.09 ± 0.059 | 1.18 ± 0.061 | 1.14 ± 0.1 | 1.13 ± 0.048 | 1.19 ± 0.077 | 1.02 ± 0.038 | 1.01 ± 0.046 | 0.909 ± 0.02 | 0.945 ± 0.022 | 0.933 ± 0.056 | 0.965 ± 0.033 | 0.824 ± 0.025 | 0.815 ± 0.013 | 0.676 ± 0.021 | 0.686 ± 0.019
HS578T BREAST | 1.02 ± 0.061 | 0.87 ± 0.15 | 0.883 ± 0.11 | 1.01 ± 0.11 | 0.946 ± 0.046 | 0.9 ± 0.056 | 0.833 ± 0.11 | 0.936 ± 0.12 | 0.899 ± 0.029 | 0.913 ± 0.041 | 0.917 ± 0.076 | 1.09 ± 0.08 | 1.05 ± 0.08 | 0.892 ± 0.042 | 0.944 ± 0.041 | 0.936 ± 0.041
